{"source": "patent US20230321063A1", "about": "“COMPOSITIONS AND METHODS TO REDUCE NEUROINFLAMMATION” (Seattle Children's Hospital d/b/a Seattle Children's …, priority 2020, published 2023)", "type_in_all_cases": "in vivo, mouse", "key": {"Ndufs4(KO) mice [1]": {"test_system": "Ndufs4(KO) mice", "experiment": "Point-of-care blood glucose by age", "from_the_text": "Point-of-care glucose and lactate testing. Blood glucose and lactate measurements were collected using point-of-care meters (Prodigy Autocode® glucose meter, product #51850-3466188, Prodigy® Diabetes Care, LLC, Charlotte, NC; lactate assay meter, product #40828, Nova Biomedical, Waltham, MA) and the tail-prick method, as previously described (Stokes et al. Elife 2021; 10:e65400)."}, "[2]": {"test_system": "non-lesion CNS tissue in Ndufs4(KO) mice", "experiment": "Brain immunological staining: microglia and astrocytes in cortex and brainstem outside of overt lesions", "details": "300 mg/kg/day", "description": "Brain immunological staining and microscopy. Brains were fixed for 48 hours in 10% formalin at 4° C. Following fixation, brains were moved to a cryoprotectant solution (30% sucrose, 1% DMSO, 100 μM glycine, 1×PBS, 0.45 μm filtered, pH 7.5), and stored for over 48 hours, until the fixed tissues sank to the bottom. Tissues were then placed in OCT media (Tissue-Tek OCT compound, Sakura 0004348-01), frozen in cryoblock holders on dry ice, and stored at −80° C. until sectioned for staining. Cryoblocks were cut at 50 μm thickness using a Leica CM30505 cryostat set at −40° C. Slices were moved to 1×PBS and stored at 4° C. until used for staining. Prior to staining, slices were mounted on slides and briefly dried to adhere.\nAntibody staining was performed as follows: slides were first incubated in an antigen retrieval and permeabilization buffer (0.05% Triton X-100, 50 μM digitonin, 10 mM Tris-HCl, 1 mM EDTA, pH 9.0) at 60° C. overnight in a white-light LED illuminated box (to promote photobleaching of tissue autofluorescence). To reduce formaldehyde induced background fluorescence, slides were treated with sodium borohydride in ice cold PBS, added at 1 mg/mL immediately before incubation, on ice for 30 min, then moved to 10 mM glycine 1×PBS, pH 7.4, for 5 min at room temperature. Lipid background fluorescence was then blocked by incubating slides in 0.2 μm filtered Sudan Black B solution (5 mg/mL in 70% ethanol) overnight at room temperature. Slides were then rinsed twice, 5 min each, in 1×PBS. Excess fluid was wiped from the slide, and the tissue was circled using Liquid Blocker PAP pen (Fisher Scientific, NC9827128) to hold staining solutions. Slides were blocked for 15 min at room temperature in 1×PBS with 10% rabbit serum (Gibco, 16120-099) then stained overnight at 4° C. in a mixture of rabbit anti-IBA1-fluorochrome 635 conjugated (WAKO 013-26471) at 1:300, mouse anti-GFAP, Alexa555 conjugated (Cell Signaling, 3656S) at 1:300, and DAPI (Sigma, D9542) at 1 μg/mL. […]"}, "Ndufs4(KO) mice [3]": {"test_system": "Ndufs4(KO) mice", "experiment": "Respiratory measurements by whole-body plethysmography", "details": "300 mg/kg/day", "description": "Respiratory measurements. Breathing parameters were recorded from alert, unrestrained, adult (P60) mice using whole-body plethysmography. Paired 300 ml recording and reference chambers were continuously ventilated (150 ml/min) with either normal air (79% nitrogen and 21% oxygen) or a hypercapnic gas mixture (74% nitrogen, 21% oxygen, and 5% CO2). Pressure differences between the recording and reference chambers were measured (Buxco Respiratory Products) and digitized (Axon Instruments) to visualize respiratory pattern, and simultaneous video recordings were performed to differentiate resting breathing activity from exploratory sniffing and grooming behaviors. Untreated and treated (pexidartinib 300 mg/kg/day) control and Ndufs4(KO) mice were allowed to acclimate to the chambers for 30-40 min prior to acquisition of 35 min of respiratory activity in normal air. The respiratory response to hypercapnia was then tested by ventilating the chambers with hypercapnic gas for 15 min. Respiratory frequency, and breath-to-breath irregularity scores (irreg.score=ABS((N-(N−1))/N)) of frequency and amplitude (peak inspiratory airflow) were quantified during periods of resting breathing (pClamp10 software). During hypercapnic challenges, only data during the final 5 min of the 15 min period were analyzed. […]"}}}
{"compound": "FC(F)(F)c1ccc(CNc2ccc(Cc3c[nH]c4ncc(Cl)cc34)cn2)cn1", "note": "[pexidartinib, 5-[(5-chloro-1H-pyrrolo[2,3-b]pyridin-3-yl)methyl]-N-[[6-(trifluoromethyl)pyridin-3-yl]methyl]pyridin-2-amine]", "values": [{"measurement": "hypoglycemia (blood glucose)", "setting": "Ndufs4(KO) mice [1]", "result": "prevented"}, {"measurement": "astrocyte numbers in non-lesion CNS tissue", "setting": "[2]", "result": "rescued to control levels"}, {"measurement": "microglia numbers in non-lesion CNS tissue", "setting": "[2]; beyond that of untreated control animals", "result": "near complete depletion of microglia"}, {"measurement": "astrocytosis and microgliosis in non-lesion CNS tissue", "setting": "[2]; cortex and brainstem outside overt lesions", "result": "prevented both forms of gliosis"}, {"measurement": "respiratory dysfunction in normal air", "setting": "Ndufs4(KO) mice [3]; P60", "result": "completely rescued"}, {"measurement": "respiratory response to increased CO2", "setting": "Ndufs4(KO) mice [3]; P60, 5% CO2", "result": "completely rescued"}]}
